One experiment relates to FGF-5. As to the kind of experiment: Determination of DNA-synthesis-inhibiting activity (uptake of tritium, 3HTdR) in the presence of recombinant FGF-5. Type of experiment: cell-based, mouse. The following applies: Balb/c3T3 cells, test solution FGF-5(+) with heparin 5 μg/ml, recombinant FGF-5 10^-10 M, peptide 10^-7 to 10^-3 M. How it is done:
(§1) Balb/c3T3 cells (1.5×10^4 cells/500 μl) were plated on a 24-well culture plate and cultured in a DMEM medium for 24 hours in the presence o f 10% FCS. After washing the cells with the medium, a DMEM medium containing 0.3% FCS was added thereto to further culture the cells for 24 hours to synchronize the cells. To the mixture, test solutions [FGF-5(+)] containing heparin (5 μg/ml), one of FGF-5 peptides 1-5 synthesized in Example 1 (10^−7 to 10^−3 M) and the recombinant FGF-5 prepared in Reference Example 1 (10^−10 M) were added. After 16 hours of cultivation, 3 HTdR was added, and the cells were further cultured for 4 hours in a CO2 incubator. The supernatants were aspirated. The cells were washed with PBS, added with 10% TCA (125 μl), and incubated at room temperature. After confirming the immobilization of the cells, the supernatants were discarded. Five-hundred ul of 0.5N NaOH was added and the mixture was further incubated at room temperature for an hour, added with 3 ml scintillator and determined for the uptake of tritium into the cells with a liquid scintillation counter.
As controls for the determinations of inhibiting and promoting activities, a test solution containing heparin (5 μg/ml) and the recombinant FGF-5 (10^−10 M) prepared in Reference Example 1 was used.

In the next experiment the test system is Balb/c3T3 cells. As to the kind of experiment: Determination of DNA-synthesis-promoting activity (uptake of tritium, 3HTdR) without FGF-5. Type of experiment: cell-based. The following applies: test solution FGF-5(-) with heparin, peptide 10^-7 to 10^-3 M, without the addition of FGF-5. How it is done: as §1
The uptake of tritium into cells was determined as described in (1) above with a liquid scintillation counter except that test solutions [FGF-5(−)] containing heparin and one of FGF-5 peptides 1-5 synthesized in Example 1 were used. […]

Another experiment deals with mouse bone marrow cells. As to the kind of experiment: Differentiating and proliferating activities to give megakaryocytes (increase of acetylcholineesterase activity). Type of experiment: cell-based. The following applies: cultured 4 days, acetylcholineesterase activity by fluorescence. As for the experimental part:
The differentiating and proliferating activities to give megakaryocytes were determined for this peptide, as the increase of acetylcholineesterase activity, by using mouse bone marrow cells as follows.
Bone marrow cells were taken from femur of ICR mouse (male, 6 weeks old), suspended in RPMI 1640 medium containing 1% fetal calf serum (FCS), and centrifuged. The supernatant was removed and the resultant was suspended in RPMI 1640 medium containing 0.5 mM DFP (diisopropylfluorophosphate) and 0.1% BSA (bovine serum albumin), and left to stand at room temperature for 20 min. Thereafter, the cells were washed with the same culture twice and suspended in RPMI 1640 medium containing 1% Neutridoma-SP and 0.1% BSA such that the number of cells was 2×10^6 cells/ml. The thus-prepared bone marrow cell suspension was dispensed in 100 μl into a 96-well culture plate, and cultured with a test solution containing 50 μl of FGF-5 peptide 6 at 37° C. for 4 days in the presence of 5% CO2.
Thereafter, the supernatant was removed, and the resultant was washed with PBS(−) twice and added with 180 μl 50 mM HEPES buffer (pH 7.6) containing 0.2% (w/v) Triton X-100 and 0.12 M NaCl and with 20 ul solution containing 5.6 mM acetylthiocholine iodide. […]

The subject of another experiment is platelets. As to the kind of experiment: Determination of thrombocytosis activity (number of platelets). Format: in vivo. The following applies: ICR mice, intraperitoneal; for increase of platelet: 1 μg/kg. How it is done: ICR mice (male, 6 weeks old, weights 29-32 g) were grouped into 4 groups of six mice. A test solution containing the above-mentioned FGF-5 peptide 6 was intraperitoneally administered for 10 successive days.
The peptide (3.3 mg/ml) in an injection solution (0.9% saline containing 100 μg/ml bovine serum albumin (Fraction V)) was administered to the mice at 0.3 ml/mouse (33 mg/kg) At the same time, human recombinant thrombopoietin solution (0.1 μg/ml) and human recombinant interleukin 6 solution (0.1 μg/ml) were prepared, and intraperitoneally administered for 0.3 ml per mouse (1 μg/kg). Five μl of blood was collected from the caudal vein of each mouse, and immediately mixed with 20 μl of 3.8% sodium citrate in a test tube. Subsequently, the blood mixtures were serially diluted twice with Cellpack and determined for the number of platelets, as well as to determine the numbers of erythrocytes and hemacrit values with Sysmex F-820 (TOA Electronics Ltd.)

No end group written: not given here.

For the substance “Gln Val His Arg (QVHR; SEQ ID NO3 represents a partial sequence (corresponding to amino acids 120-123) of the amino acid sequence of human FGF-5S.) [FGF-5 peptide 5]”, in the experiment with FGF-5, the DNA-synthesis-inhibiting activity result is reported as “inhibited DNA synthesis”. Regarding HEANMLS [FGF-5 peptide 3], the DNA-synthesis-promoting activity result in the experiment on Balb/c3T3 cells is reported as “promoted DNA synthesis”.

Turning to HEANMLSQVHR [FGF-5 peptide 4], the DNA-synthesis-inhibiting activity result with FGF-5 was “inhibited DNA synthesis”.

Consider PDGKVNGSHEANM [FGF-5 peptide 6], for which the “differentiating and proliferating activities to give megakaryocytes” value with mouse bone marrow cells was “exerts differentiating and proliferating activities to give megakaryocytes”. In addition, the “increase of the numbers of platelets” value in the experiment with platelets (33 mg/kg, 10 successive days, two to 4 days after the administration) amounted to 1.6 folds. On to “Pro Asp Gly Lys Val Asn Gly Ser His Glu Ala Asn Met Leu Ser GIn Val His Arg (PDGKVNGSHEANMLSQVHR; SEQ ID NO10 represents a partial sequence of the amino acid sequence of human FGF-5.) [FGF-5 peptide 1]”, for which, in the experiment on Balb/c3T3 cells, the DNA-synthesis-promoting activity result is “promoted DNA synthesis”.

Take “human recombinant interleukin 6: human recombinant interleukin 6 solution (0.1 μg/ml), comparator in the platelet test”: the increase of platelet result in the experiment with platelets is listed as “about 1.6 fold”. Turning to “human recombinant thrombopoietin: human recombinant thrombopoietin solution (0.1 μg/ml), comparator in the platelet test”, the increase of platelet result in the experiment with platelets is given as “about 1.6 fold”.
